Laboratory results: ChEMBL document CHEMBL5728204, “Spiro[3H-indole-3,2′-pyrrolidin]-2(1H)-one compounds and derivatives as MDM2-P53 inhibitors” (2021)
Where “and” joins values, the source holds several entries; their conditions need not be identical. Equal values may be shown once.

Experiment: A mix consisting of 20 nM GST-MDM2 protein (aa 23-117) and 20 nM biotinylated p53 wt peptide (encompassing aa 16-27 of wt human p53, amino acid sequence QETFSDLWKLLP-Ttds-Lys-Biotin, molecular weight 2132.56 g/mol) is prepared in assay buffer (50 mM Tris/HCl pH 7.2; 120 mM NaCl; 0.1% bovine serum albumin (BSA); 5 mM dithiothreitol (DTT); 1 mM ethylenediaminetetraacetic acid (EDTA); 0.01% Tween 20). 30 μL of the mix is added to the compound dilutions and incubated for 15 min at rt while gently shaking the plate at 300 rounds per minute (rpm). Subsequently, 15 μL of premixed AlphaLISA Glutathione Acceptor Beads and AlphaScreen Streptavidin Donor Beads from PerkinElmer (in assay buffer at a concentration of 10 μg/mL each) are added and the samples are incubated for 30 min at rt in the dark (shaking 300 rpm). Afterwards, the signal is measured in a PerkinElmer Envision HTS Multilabel Reader using the AlphaScreen protocol from PerkinElmer.Each plate contains negative controls where biotinylated p53-peptide and GST-MDM2 are left out and replaced by assay buffer. Negative control values are entered as low basis value when using the software GraphPad Prism for calculations.

Structure (SMILES)	IC50
CC(C1CC1)N1[C@H]2CCn3c(nc4cc(S(C)(=O)=O)ccc43)[C@H]2[C@H](c2cccc(Cl)c2F)[C@]12C(=O)Nc1cc(Cl)ccc12 (some centres undefined)	12 nM and 7 nM
COC(=O)c1ccc2c(c1)nc1n2CC[C@H]2[C@@H]1[C@H](c1cccc(Cl)c1F)[C@]1(C(=O)Nc3cc(Cl)ccc31)N2CC1CC1	3 nM
CS(=O)(=O)OCCN1[C@H]2CCn3c(nc4cc(C(=O)O)ccc43)[C@H]2[C@H](c2cccc(Cl)c2F)[C@]12C(=O)Nc1cc(Cl)ccc12	58 nM
CC(=O)Nc1ccc2c(c1)nc1n2CC[C@H]2[C@@H]1[C@H](c1cccc(Cl)c1F)[C@]1(C(=O)Nc3cc(Cl)ccc31)N2C(C)C1CC1 (some centres undefined)	15 nM
